PMC10202811 (Nature Medicine, 2023)
“And” between values parts separate entries of the source, which are not always exact repeats. Equal entries are not always repeated. Where two headings read alike, the source gives them in different places.

Assay: Plasma pharmacokinetics of lorlatinib at steady state (LC-MS/MS, non-compartmental analysis)
Assay type: in vivo, human
Set-up: Vz_F / Cmax_D / AUMClast / AUMC_TAU: unit not given here
Conditions: for Tlag: unit assumed
Text: Lorlatinib was isolated from human plasma by a liquid-iquid extraction procedure. […] A linear-log trapezoidal method was used [NT] A best-fit method was used to estimate terminal elimination and to extrapolate any plasma concentration versus time profiles to compute [NT].

[1] = Cycle 1 Day 1, Cohort B2, 115 mg/m2 per dose
[2] = Cycle 1 Day 1, Cohort A1, 45 mg/m2 per dose, individual patients
[3] = Cycle 1 Day 1, Cohort A1, 60 mg/m2 per dose, individual patients
[4] = Cycle 1 Day 1, Cohort A1, 75 mg/m2 per dose, individual patients
[5] = Cycle 1 Day 1, Cohort A1, 95 mg/m2 per dose, individual patients
[6] = Cycle 1 Day 1, Cohort A1, 115 mg/m2 per dose, individual patients
[7] = Cycle 1 Day 1, Cohort A2, 100 mg per dose, individual patients
[8] = Cycle 1 Day 1, Cohort A2, 150 mg per dose, individual patients
[9] = Cycle 1 Day 1, Cohort A2, 150 mg per dose, individual patients, in ng/mL
[10] = Cycle 1 Day 1, Cohort A2, 150 mg per dose, individual patients, in ng·h/mL (unit assumed)
[11] = Cycle 1 Day 1, Cohort A2, 150 mg per dose, individual patients, listed as lorlatinib, in h (unit assumed)
[12] = Cycle 1 Day 1, patient N0773, Cohort B2, 115 mg/m2 per dose, Dose 75
[13] = Cycle 1 Day 15, Cohort A1, 95 mg/m2 per dose
[14] = Cycle 1 Day 15, Cohort A1, 95 mg/m2 per dose, in h (unit assumed)
[15] = Cycle 1 Day 15, Cohort A1, 115 mg/m2 per dose
[16] = Cycle 1 Day 15, Cohort A2, 150 mg per dose
[17] = Cycle 1 Day 15, Cohort A2, 150 mg per dose, in h (unit assumed)
[18] = Cycle 1 Day 15, Cohort A2, 150 mg per dose, in ng·h/mL (unit assumed)
[19] = Cycle 1 Day 15, Cohort B2, 95 mg/m2 per dose
[20] = Cycle 1 Day 15, Cohort B2, 95 mg/m2 per dose, in h (unit assumed)
[21] = Cycle 1 Day 15, Cohort B2, 95 mg/m2 per dose, in ng/mL
[22] = Cycle 1 Day 15, Cohort B2, 95 mg/m2 per dose, in ng·h/mL (unit assumed)
[23] = Cycle 1 Day 15, Cohort B2, 115 mg/m2 per dose
[24] = Cycle 1 Day 15, Cohort A1, 45 mg/m2 per dose, individual patients
[25] = Cycle 1 Day 15, Cohort A1, 45 mg/m2 per dose, individual patients, in h (unit assumed)
[26] = Cycle 1 Day 15, Cohort A1, 60 mg/m2 per dose, individual patients
[27] = Cycle 1 Day 15, Cohort A1, 60 mg/m2 per dose, individual patients, in h (unit assumed)
[28] = Cycle 1 Day 15, Cohort A1, 75 mg/m2 per dose, individual patients
[29] = Cycle 1 Day 15, Cohort A1, 75 mg/m2 per dose, individual patients, in h (unit assumed)
[30] = Cycle 1 Day 15, Cohort A1, 75 mg/m2 per dose, individual patients, in ng·h/mL (unit assumed)
[31] = Cycle 1 Day 15, Cohort A1, 95 mg/m2 per dose, individual patients
[32] = Cycle 1 Day 15, Cohort A1, 95 mg/m2 per dose, individual patients, in h (unit assumed)
[33] = Cycle 1 Day 15, Cohort A1, 115 mg/m2 per dose, individual patients

Q: With `C[C@H]1Oc2cc(cnc2N)-c2c(nn(C)c2C#N)CN(C)C(=O)c2ccc(F)cc21` [Lorlatinib, (10R)-7-amino-12-fluoro-2,10,16-trimethyl-15-oxo-10,15,16,17-tetrahydro-2H-8,4-(metheno)pyrazolo[4,3-h][2,5,11]-benzoxadiazacyclotetradecine-3-carbonitrile] as the compound, how does the Tlag (Cycle 1 Day 1, Cohort A2, 150 mg per dose) read?
A: 0 h

Q: And the Tlag (Cycle 1 Day 1, Cohort B2, 95 mg/m2 per dose)?
A: 0 h

Q: What about the Tlast [1] of the same compound?
A: 24 h

Q: What about the Tmax (Cycle 1 Day 1, Cohort B2, 115 mg/m2 per dose, in h (unit assumed)) of the same compound?
A: 1

Q: What about the Tmax (Cycle 1 Day 1, Cohort B2, 115 mg/m2 per dose, listed as lorlatinib, in h (unit assumed)) of the same compound?
A: 2

Q: And the Tlag [1]?
A: 0 h

Q: What about the Tlast [2] of the same compound?
A: 24 h

Q: And the Tmax (Cycle 1 Day 1, Cohort A1, 45 mg/m2 per dose, individual patients, in h (unit assumed))?
A: 2

Q: And the Tlag [2]?
A: 0 h

Q: What about the Tlast [3] of the same compound?
A: 24 h

Q: And the Tlag [3]?
A: 0 h

Q: And the Tlast [4]?
A: 24 h

Q: And the Tmax (Cycle 1 Day 1, Cohort A1, 75 mg/m2 per dose, individual patients, in h (unit assumed))?
A: 2

Q: And the Cmax (Cycle 1 Day 1, Cohort A1, 75 mg/m2 per dose, individual patients, in ng/mL)?
A: 779

Q: What about the Tlag [4] of the same compound?
A: 0 h

Q: And the Tlast [5]?
A: 24 h

Q: And the Tlag [5]?
A: 0 h

Q: What about the AUMClast [6] of the same compound?
A: 125336.7763

Q: What about the Cmax_D [6] of the same compound?
A: 11.08

Q: What about the Tlast [6] of the same compound?
A: 24 h

Q: What about the Clast (Cycle 1 Day 1, Cohort A1, 115 mg/m2 per dose, individual patients, in ng/mL) of the same compound?
A: 172

Q: And the Tlag [6]?
A: 0 h

Q: And the Tlast [7]?
A: 24 h

Q: What about the Tmax (Cycle 1 Day 1, Cohort A2, 100 mg per dose, individual patients, in h (unit assumed)) of the same compound?
A: 2

Q: What about the Tlag [7] of the same compound?
A: 0 h

Q: And the AUMClast [8]?
A: 49463.3786 and 88733.21472 and 92632.60987

Q: And the Cmax_D [8]?
A: 3.76 and 5.527 and 7.067

Q: What about the Tlast [8] of the same compound?
A: 24 h

Q: And the Tmax (Cycle 1 Day 1, Cohort A2, 150 mg per dose, individual patients, in h (unit assumed))?
A: 2

Q: What about the Clast [9] of the same compound?
A: 70.8 and 151 and 127

Q: What about the Cmax [9] of the same compound?
A: 829 and 1060

Q: What about the AUCall [10] of the same compound?
A: 9320 and 11097.69267

Q: What about the AUClast [10] of the same compound?
A: 9320 and 11097.69267

Q: What about the MRTlast [11] of the same compound?
A: 9.52 and 8.347

Q: What about the Tmax [11] of the same compound?
A: 2

Q: What about the Tlag [8] of the same compound?
A: 0 h

Q: And the AUMClast [12]?
A: 89144.88493

Q: What about the Cmax_D [12] of the same compound?
A: 22.13

Q: What about the Tlast [12] of the same compound?
A: 24 h

Q: What about the Tlag [12] of the same compound?
A: 0 h

Q: And the AUC_TAU_%Extrap [13]?
A: 0%

Q: What about the Tlast [13] of the same compound?
A: 24 h

Q: And the Tmax [14]?
A: 1

Q: What about the Tmin [14] of the same compound?
A: 0

Q: And the Cavg (Cycle 1 Day 15, Cohort A1, 95 mg/m2 per dose, in ng/mL)?
A: 288.1

Q: And the Tlag [13]?
A: 0 h

Q: And the AUC_TAU_%Extrap [15]?
A: 0%

Q: What about the Tlast [15] of the same compound?
A: 24 h

Q: What about the Tmin (Cycle 1 Day 15, Cohort A1, 115 mg/m2 per dose, in h (unit assumed)) of the same compound?
A: 0

Q: And the Tlag [15]?
A: 0 h

Q: What about the AUC_TAU_%Extrap [16] of the same compound?
A: 0%

Q: What about the AUMC_TAU [16] of the same compound?
A: 48864.79941 and 48509.22474 and 72138.31531 and 51031.1075 and 68396.67554 and 68306.96584 and 82226.35285

Q: What about the Accumulation_Index [16] of the same compound?
A: 1.404 and 1.221 and 1.584 and 1.215 and 1.756 and 1.451 and 1.861

Q: And the CLss_F [16]?
A: 30.01 and 26.36 and 19.5 and 22.81 and 21.08 and 21.41 and 18.08

Q: What about the Tlast [16] of the same compound?
A: 24 h

Q: And the Vz_F [16]?
A: 578.5 and 370.3 and 469.1 and 316.3 and 600.6 and 439.8 and 562.8

Q: And the Tmax [17]?
A: 1

Q: And the Tmin [17]?
A: 0

Q: What about the Cavg (Cycle 1 Day 15, Cohort A2, 150 mg per dose, in ng/mL) of the same compound?
A: 208.3 and 237.1 and 320.6 and 274 and 296.5 and 291.9 and 345.7

Q: What about the AUC_TAU [18] of the same compound?
A: 5690 and 7694 and 6577 and 7116 and 7005

Q: And the AUCall [18]?
A: 5690 and 7694 and 6577 and 7116 and 7005

Q: What about the AUClast [18] of the same compound?
A: 5690 and 7694 and 6577 and 7116 and 7005 and 8297

Q: What about the Tmax (Cycle 1 Day 15, Cohort A2, 150 mg per dose, read-out: Tmax) of the same compound?
A: 1 h (4×) and 2 h

Q: And the Tlag [16]?
A: 0 h

Q: And the AUC_%Extrap_obs [19]?
A: 3.629%

Q: What about the AUC_%Extrap_pred [19] of the same compound?
A: 3.558%

Q: What about the AUC_TAU_%Extrap [19] of the same compound?
A: 0%

Q: What about the Accumulation_Index [19] of the same compound?
A: 1.029

Q: And the Tlast [19]?
A: 24 h

Q: What about the Vz_F [19] of the same compound?
A: 73.35

Q: And the HL_Lambda_z [20]?
A: 4.68

Q: And the Tmax [20]?
A: 2

Q: And the Tmin [20]?
A: 0

Q: What about the Lambda_z (Cycle 1 Day 15, Cohort B2, 95 mg/m2 per dose, in h-1 (unit assumed)) of the same compound?
A: 0.1481

Q: What about the Clast_pred [21] of the same compound?
A: 30.18

Q: What about the Cmax [21] of the same compound?
A: 721

Q: What about the AUC_TAU [22] of the same compound?
A: 5523

Q: What about the AUCall [22] of the same compound?
A: 5523

Q: And the AUClast [22]?
A: 5523

Q: And the Tlag [19]?
A: 0 h

Q: What about the AUC_TAU_%Extrap [23] of the same compound?
A: 0%

Q: What about the Tlast [23] of the same compound?
A: 24 h

Q: What about the Tmax (Cycle 1 Day 15, Cohort B2, 115 mg/m2 per dose, in h (unit assumed)) of the same compound?
A: 1

Q: And the Tmax (Cycle 1 Day 15, Cohort B2, 115 mg/m2 per dose, listed as lorlatinib, in h (unit assumed))?
A: 2

Q: What about the Tlag [23] of the same compound?
A: 0 h

Q: What about the AUC_TAU_%Extrap [24] of the same compound?
A: 0%

Q: And the Tlast [24]?
A: 24 h

Q: And the Vz_F [24]?
A: 335.3

Q: And the Tmax [25]?
A: 2

Q: And the Tmin [25]?
A: 0

Q: And the Tlag [24]?
A: 0 h

Q: And the AUC_TAU_%Extrap [26]?
A: 0%

Q: And the Tlast [26]?
A: 24 h

Q: And the Tmax [27]?
A: 2

Q: And the Tmin [27]?
A: 0

Q: What about the Cmax (Cycle 1 Day 15, Cohort A1, 60 mg/m2 per dose, individual patients, in ng/mL) of the same compound?
A: 343

Q: And the Tlag [26]?
A: 0 h

Q: And the AUC_TAU_%Extrap [28]?
A: 0%

Q: What about the Tlast [28] of the same compound?
A: 24 h

Q: And the MRTINF_obs [29]?
A: 9.338

Q: And the MRTINF_pred [29]?
A: 9.311

Q: What about the Tmin [29] of the same compound?
A: 0

Q: And the AUCINF_obs [30]?
A: 3021

Q: And the AUCINF_pred [30]?
A: 3018

Q: What about the Tlag [28] of the same compound?
A: 0 h

Q: What about the AUC_TAU_%Extrap [31] of the same compound?
A: 0%

Q: What about the Tlast [31] of the same compound?
A: 24 h

Q: What about the MRTINF_obs [32] of the same compound?
A: 11.95

Q: What about the MRTINF_pred [32] of the same compound?
A: 11.86

Q: And the Tmax [32]?
A: 2

Q: What about the Tmin [32] of the same compound?
A: 0

Q: What about the Tlag [31] of the same compound?
A: 0 h

Q: What about the AUC_%Extrap_obs [33] of the same compound?
A: 23.66%

Q: What about the AUC_%Extrap_pred [33] of the same compound?
A: 23.4%

Q: What about the AUC_TAU_%Extrap [33] of the same compound?
A: 0%

Q: And the AUMC_TAU [33]?
A: 68314.30452

Q: What about the Accumulation_Index [33] of the same compound?
A: 1.333

Q: And the CLss_F [33]?
A: 15.84

Q: And the Cmax_D [33]?
A: 10.38

Q: And the Fluctuation% [33]?
A: 351.8%

Q: And the Fluctuation%_Tau [33]?
A: 351.8%
